BindingDB's records for patent US12077506 (Nikang Therapeutics, 2024)
pEC50: −log10 of the molar value.

Target: Endothelial PAS domain-containing protein 1 (Homo sapiens, UniProt Q99814)
Assay: VEGF ELISA Assay
Protocol: Four hours later, compounds were dispensed into wells by Tecan D300e digital dispenser with starting concentration of 10 uM and log of dilution down to 1 nM as final concentration. Each concentration of treatment was performed in duplicate. About 20 hours later, medium was removed and fresh medium was added, followed by compounds treatment as described above. After 24 hours, cell culture medium was collected to determine VEGF concentration using an ELISA kit (R&D systems, cat #DVE00) following the manufacturer's instruction.

Sequence of Endothelial PAS domain-containing protein 1 (Q99814 whole entry, the tested form may be a part): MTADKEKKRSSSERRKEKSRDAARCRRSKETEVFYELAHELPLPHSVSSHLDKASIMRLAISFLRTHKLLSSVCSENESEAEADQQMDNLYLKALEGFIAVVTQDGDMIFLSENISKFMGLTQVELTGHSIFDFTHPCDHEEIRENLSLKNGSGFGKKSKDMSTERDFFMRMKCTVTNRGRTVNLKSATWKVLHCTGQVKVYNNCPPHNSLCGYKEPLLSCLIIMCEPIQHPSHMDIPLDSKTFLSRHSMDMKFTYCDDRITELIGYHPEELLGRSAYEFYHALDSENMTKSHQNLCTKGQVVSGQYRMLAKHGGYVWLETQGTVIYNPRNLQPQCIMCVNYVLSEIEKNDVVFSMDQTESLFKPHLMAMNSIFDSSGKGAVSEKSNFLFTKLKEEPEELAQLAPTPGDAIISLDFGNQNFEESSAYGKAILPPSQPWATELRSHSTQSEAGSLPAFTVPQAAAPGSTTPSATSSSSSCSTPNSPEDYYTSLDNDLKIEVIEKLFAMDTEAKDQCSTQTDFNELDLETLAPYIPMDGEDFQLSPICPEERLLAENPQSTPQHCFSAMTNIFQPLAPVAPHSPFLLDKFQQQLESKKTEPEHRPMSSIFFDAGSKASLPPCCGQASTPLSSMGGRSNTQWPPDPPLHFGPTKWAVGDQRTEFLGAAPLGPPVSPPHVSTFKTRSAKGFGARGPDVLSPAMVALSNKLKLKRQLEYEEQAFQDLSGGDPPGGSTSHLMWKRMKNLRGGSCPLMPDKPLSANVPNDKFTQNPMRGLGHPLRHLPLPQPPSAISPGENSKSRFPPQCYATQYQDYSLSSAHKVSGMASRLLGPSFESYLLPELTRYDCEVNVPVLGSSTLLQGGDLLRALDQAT

Work on `OC1c2c(ccc(Oc3cc(F)cc(F)c3)c2C(F)F)C(F)(F)C1(F)F` (stereo unspecified) [US12077506, Compound I-4] yielded a pEC50 of 8.40.
